In patent US10835542B2, “9-aminomethyl minocycline compounds and use thereof in treating community-acquired bacterial pneumonia (CABP)” (Paratek Pharmaceuticals, Inc., priority 2016, dated 2020):

COc1c(N2C[C@@H]3CCCN[C@@H]3C2)c(F)cc2c(=O)c(C(=O)O)cn(C3CC3)c12 [Moxifloxacin, moxifloxacin, reference compound]
Total number of deaths (ITT population): 4 | Subjects who died (Safety population): 4 (1.0) n (%) | Subjects with at least one Adverse Event (AE) (Safety population): 200 (51.5) n (%) | Subjects with at least one Drug-Related Serious TEAE (Safety population): 2 (0.5) n (%) | Subjects with at least one Drug-Related TEAE (Safety population): 69 (17.8) n (%) | Subjects with at least one Serious TEAE (Safety population): 26 (6.7) n (%) | Subjects with at least one Serious TEAE Leading to Death (Safety population): 4 (1.0) n (%) | Subjects with at least one Serious TEAE Leading to Premature Discontinuation of Test Article (Safety population): 11 (2.8) n (%) | Subjects with at least one Severe TEAE (Safety population): 26 (6.7) n (%) | Subjects with at least one TEAE (Safety population): 188 (48.5) n (%) | Subjects with at least one TEAE Leading to Dose Interruption (Safety population): 0 n (%) | Subjects with at least one TEAE Leading to Premature Discontinuation of Study (Safety population): 9 (2.3) n (%) | Subjects with at least one TEAE Leading to Premature Discontinuation of Test Article (Safety population): 27 (7.0) n (%) | TEAE leading to study drug discontinuation: Diarrhoea (Safety population): 1 (0.3) n (%) | TEAE leading to study drug discontinuation: Dyspepsia (Safety population): 1 (0.3) n (%) | TEAE leading to study drug discontinuation: Gastrointestinal Disorders (Safety population): 2 (0.5) n (%) | TEAE leading to study drug discontinuation: Nausea (Safety population): 0 n (%) | TEAE leading to study drug discontinuation: Vomiting (Safety population): 0 n (%) | TEAE: Alanine Aminotransferase Increased (Safety population): 18 (4.6) n (%) | TEAE: Aspartate Aminotransferase Increased (Safety population): 14 (3.6) n (%) | TEAE: Constipation (Safety population): 6 (1.5) n (%) | TEAE: Diarrhoea (Safety population): 31 (8.0) n (%) | TEAE: Dyspepsia (Safety population): 2 (0.5) n (%) | TEAE: Gamma-Glutamyltransferase Increased (Safety population): 8 (2.1) n (%) | TEAE: Headache (Safety population): 5 (1.3) n (%) | TEAE: Hypertension (Safety population): 11 (2.8) n (%) | TEAE: Insomnia (Safety population): 8 (2.1) n (%) | TEAE: Nausea (Safety population): 21 (5.4) n (%) | TEAE: Pseudomembranous Colitis (Safety population): 1 (0.3) n (%) | TEAE: Vomiting (Safety population): 6 (1.5) n (%) | Total Number of AEs (Safety population): 520 | Total Number of TEAEs (Safety population): 461
